The results in this text go back to patent US6664231B1, “Anti-fungal peptides” (priority 1993, dated 2003).

Where two headings read alike, the source gives them in different places. Where only a bound is given, the exact number is not on record here.

One experiment deals with Candida albicans. Description: Radial diffusion assay, Candida species (Table 2). The conditions noted are these: higher effective concentration of agarose than Table 1. In kind it is cell-based.
The next experiment has as its system Aspergillus ATCC 13073. Description: microbe, parasite or virus in culture. It is filed as cell-based. As for the experimental part: (§1) The anti-fungal activity of Domain III derived peptides was evaluated against a variety of fungal species, including species of Candida. Cryptococcus, Fusarium, Trichophyton, and Aspergillus, by an additional assay protocol utilizing Alamar Blue. Alamar Blue is an indicator dye formulated to measure quantitatively the proliferation of a variety of human or animal cells, bacteria, or fungi. It consists of an oxidation-reduction (REDOX) indicator that yields a colorimetric change in response to metabolic activity. For these experiments, species of Candida and Cryptococcus were grown in Sabouraud's dextrose broth (SDB) overnight. Strains of filamentous fungi (Aspergilius, Fusanum, Trichophyton) were obtained by irrigation of a confluent culture from a petri dish. Cells were washed and adjusted to a concentration of 5.0×10^3/mL in fresh SDB. […] Controls included amphotericin B, fluconazole, ketoconazole and griseofulvin. Antifungal drugs were also diluted in the same manner. Assays were performed in 96-well microuiter plates. […] The wells to be plated were determined by OD590 readings. The lowest concentration of peptide which maintained the blue color (or OD reading) of the blank was chosen along with the next two higher concentrations. Plates were allowed to grow for 18-48 hours depending on the rate of growth of each fungus. Minimal fungicidal activity (MFC) was determined as a 99.9% killing of the starting inoculum.

Experiment [1] relates to Aspergillus niger ATCC 16404. Description: microbe, parasite or virus in culture. In kind it is cell-based. How it is done:
as §1

Experiment [2] has as its system Candida albicans (SLU-1 and ATCC strains). Description: microbe, parasite or virus in culture. In kind it is cell-based. As for the experimental part:
as §1

In experiment [3] the test system is Candida glabrata ATCC 2001. Description: microbe, parasite or virus in culture. In kind it is cell-based. As for the experimental part: as §1
Experiment [4] has as its system Candida parapsilosis ATCC 22019. Description: microbe, parasite or virus in culture. It is filed as cell-based. How it is done:
as §1

Experiment [5] concerns Cryptococcus neoformans ATCC 13690. Description: microbe, parasite or virus in culture. In kind it is cell-based. As for the experimental part:
as §1

Experiment [6] concerns Fusarium solani ATCC 36031. Description: microbe, parasite or virus in culture. It is filed as cell-based. How it is done:
as §1

Experiment [7] has as its system C. albicans (SLU-1 and other strains). In kind it is cell-based, Candida albicans. How it is done:
In additional experiments, a fluorescence-activated cell sorter (FACS) based assay was developed to test the fungicidal activity of the peptides. […] Difco) agar. Several colonies were picked from the agar plate and inoculated into 5 mL of Sabouraud's Dextrose media in a sterile 10 mL polypropylene tube. The fungal cultures were incubated for about 18 hours at 30° C. […] The culture were centrifuged at 3000 rpm for 5 minutes (Sorvall RT 6000B). After centrifugation, the supernatant was decanted leaving the fungal pellets in the centrifuge tubes. The pellets were resuspended in 15 mL of SDB. Both suspensions were combined into one tube and mixed to generate a stock culture. […] After determining the concentration of the stock, appropriate dilutions were made with Sabouraud's Dextrose media to obtain 100 mL of 1×10^6 cell/mL. […] After the 1 hour incubation, all the tubes were centrifuged at 3000 rpm for 5 minutes. […] Louis, Mo.) in Dulbecco's PBS (DPBS, GIBCO, Grand Island, N.Y.) except the autofluorescence control, which was resuspended in DPBS alone. The tubes were mixed and incubated in the dark at room temperature for at least 20 minutes. […] The settings were adjusted appropriately to the following approximate parameters: Cells were analyzed (10,000 cells/tube) and their respective fluorescence determined. […] The population of dead (i.e., propidium iodide stained) fungal cells was determined by a fluorescence threshold between the negative control and positive control.

A further experiment relates to Candida albicans SLU-1. Description: Survival of cyclosporin A-immunosuppressed mice systemically infected with Candida albicans. In kind it is in vivo, mouse. Conditions: cyclosporin A 10 mg/kg i.p.; 2×10^5 Candida cells; peptide 10 mg/kg, 6 doses; FIG. 7. How it is done:
Studies were also performed to determine the effectiveness of representative anti-fungal peptides in cyclosporin A-immunosuppressed mice systemically infected with Candida albicans SLU-1. Groups (15 animals/group) of 9 week-old male DBA/2J mice were immunosuppressed by pretreatment with 10 mg/kg (Day-1) of cyclosporin A administered by intraperitoneal injection. One day later (Day 0), the mice were inoculated with 2×10^5 Candida cells by intravenous injection in the tail vein. Immediately after fungal challenge, the mice were treated with a 0.1 mL volume of 10 mg/kg XMP.284, 10 mg/kg XMP.127, or PBS as a control. Cyclosporin A injections were repeated at Day 1. Day 3. Day 7, and Day 9. XMP.284, XMP.127 or PBS injections were repeated at Day 2, Day 4, Day 6, Day 8 and Day 10. […]. […] However.

On to `C[C@@H]1[C@H](O)[C@@H](C)/C=C/C=C/C=C/C=C/C=C/C=C/C=C/[C@H](O[C@@H]2O[C@H](C)[C@@H](O)[C@H](N)[C@@H]2O)C[C@@H]2O[C@](O)(C[C@@H](O)C[C@@H](O)[C@H](O)CC[C@@H](O)C[C@@H](O)CC(=O)O[C@H]1C)C[C@H](O)[C@H]2C(=O)O` [Amphotericin B, amphotericin B, reference compound], for which the “Anti-fungal activity: pmol/30 mm^2 zone, Candida albicans” value with Candida albicans worked out at 11 pmol/30 mm^2 zone. Further, in the experiment with Aspergillus ATCC 13073, the “Minimum Fungicidal Concentration, Aspergillus ATCC 13073” value came to 12.50 µg/mL. In addition, the “Minimum Fungicidal Concentration, Aspergillus niger ATCC 16404” value in experiment [1] came out at 5.00 µg/mL. In addition, in experiment [2] (strain ATCC 10231), the “Minimum Fungicidal Concentration, Candida albicans ATCC 10231” value turned out to be 0.63 µg/mL. The “Minimum Fungicidal Concentration, Candida albicans ATCC 18840” value in experiment [2] (strain ATCC 18840) is 1.25 µg/mL. Moreover, the “Minimum Fungicidal Concentration, Candida albicans ATCC 26555” value in experiment [2] (strain ATCC 26555) is 1.25 µg/mL. The “Minimum Fungicidal Concentration, Candida albicans ATCC 44808” value in experiment [2] (strain ATCC 44808) is 1.25 µg/mL. Further, in [2] (strain ATCC 90028), the “Minimum Fungicidal Concentration, Candida albicans ATCC 90028” value is 1.25 µg/mL. Also, in [2] (strain SLU-1), the “Minimum Fungicidal Concentration, Candida albicans SLU-1” value was determined as 0.63 µg/mL. The “Minimum Fungicidal Concentration, Candida glabrata ATCC 2001” value in experiment [3] was found to be 0.32 µg/mL. Besides, in experiment [4], the “Minimum Fungicidal Concentration, Candida parapsilosis ATCC 22019” value stood at 5.0 µg/mL. For the same compound, the “Minimum Fungicidal Concentration, Cryptococcus neoformans ATCC 13690” value in experiment [5] was 1.25 µg/mL. For the same compound, the “Minimum Fungicidal Concentration, Fusarium solani ATCC 36031” value in experiment [6] came to 0.62 µg/mL. In addition, the “Activity of peptides on C. albicans SLU-1, IC50” value in experiment [7] (Table 5, percentage of dead cells, 1 hour, 30° C.) was found to be 79.36 µg/mL. In addition, the “protection against infection, survival compared with PBS controls” value in the experiment on Candida albicans SLU-1 was “protected”.

As to H-KSKVGWLIQLFHKK-NH2 [XMP.13], in the experiment with Candida albicans, the “Anti-fungal activity: pmol/30 mm^2 zone, Candida albicans” value was 2,233 pmol/30 mm^2 zone.

H-SKVKWLIQLFHKK-NH2 [XMP.284]: the “Minimum Fungicidal Concentration, Aspergillus ATCC 13073” value in the experiment on Aspergillus ATCC 13073 (ATCC 13073) is 12.50 µg/mL. Besides, the “Minimum Fungicidal Concentration, Aspergillus niger ATCC 16404” value in [1] (ATCC 16404) stood at 2.5 µg/mL. Also, in [2] (SLU-1 and ATCC strains), the “Minimum Fungicidal Concentration, Candida albicans ATCC 10231” value was 5.0 µg/mL; the “Minimum Fungicidal Concentration, Candida albicans ATCC 18840” value was found to be 2.5 µg/mL; the “Minimum Fungicidal Concentration, Candida albicans ATCC 26555” value was determined as 1.25 µg/mL; the “Minimum Fungicidal Concentration, Candida albicans ATCC 44808” value is 1.25 µg/mL. In addition, in experiment [2] (SLU-1 and ATCC strains), the “Minimum Fungicidal Concentration, Candida albicans ATCC 90028” value worked out at 1.25 µg/mL and the “Minimum Fungicidal Concentration, Candida albicans SLU-1” value came to 2.50 µg/mL. Also, the “Minimum Fungicidal Concentration, Candida glabrata ATCC 2001” value in [3] (ATCC 2001) is greater than 10.0 µg/mL. Besides, the “Minimum Fungicidal Concentration, Candida parapsilosis ATCC 22019” value in experiment [4] (ATCC 22019) was greater than 10.0 µg/mL. The “Minimum Fungicidal Concentration, Cryptococcus neoformans ATCC 13690” value in experiment [5] (ATCC 13690) is 0.63 µg/mL. In experiment [6] (ATCC 36031), the “Minimum Fungicidal Concentration, Fusarium solani ATCC 36031” value stood at 0.31 µg/mL. In experiment [7] (SLU-1 and other strains), the “Activity on various strains of C. albicans, IC50, 10231” value turned out to be 1.86 µg/mL; the “Activity on various strains of C. albicans, IC50, 14053” value stood at 0.50 µg/mL; the “Activity on various strains of C. albicans, IC50, 26555” value is 0.59 µg/mL; the “Activity on various strains of C. albicans, IC50, 90028” value was found to be 1.08 µg/mL. The “Activity on various strains of C. albicans, IC50, SLU#1” value in experiment [7] (SLU-1 and other strains) was 0.31 µg/mL. The “protection against infection, survival compared with PBS controls” value in the experiment on Candida albicans SLU-1 is “provided protection”.
